# In BindingDB's records for patent US10428066 (PROXIMAGEN, LLC, 2019):
# Biological target: T1, Membrane primary amine oxidase (Homo sapiens, UniProt Q16853)
# T1 sequence (Q16853 whole entry): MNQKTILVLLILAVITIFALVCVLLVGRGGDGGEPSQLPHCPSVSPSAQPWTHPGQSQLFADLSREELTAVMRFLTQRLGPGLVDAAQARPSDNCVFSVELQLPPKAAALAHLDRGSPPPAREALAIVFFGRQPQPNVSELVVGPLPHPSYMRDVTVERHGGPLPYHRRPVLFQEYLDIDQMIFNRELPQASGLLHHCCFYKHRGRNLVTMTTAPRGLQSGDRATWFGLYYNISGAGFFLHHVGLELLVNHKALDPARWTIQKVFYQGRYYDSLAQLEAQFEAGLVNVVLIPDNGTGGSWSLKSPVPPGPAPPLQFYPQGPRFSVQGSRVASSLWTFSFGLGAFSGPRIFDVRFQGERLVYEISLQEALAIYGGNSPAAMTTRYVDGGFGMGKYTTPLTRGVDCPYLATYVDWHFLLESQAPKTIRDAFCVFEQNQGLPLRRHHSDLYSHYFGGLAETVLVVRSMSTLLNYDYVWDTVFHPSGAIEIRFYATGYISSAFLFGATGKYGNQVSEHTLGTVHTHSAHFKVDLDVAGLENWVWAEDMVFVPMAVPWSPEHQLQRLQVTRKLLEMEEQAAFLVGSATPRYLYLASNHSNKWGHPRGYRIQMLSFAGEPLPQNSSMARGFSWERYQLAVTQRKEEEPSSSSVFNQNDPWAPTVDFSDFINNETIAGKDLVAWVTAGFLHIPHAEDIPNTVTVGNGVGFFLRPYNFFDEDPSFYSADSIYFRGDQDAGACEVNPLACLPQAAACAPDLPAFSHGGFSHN
# Test: Biological Assay
# Experimental: All primary assays were performed at RT. with purified recombinantly expressed human SSAO. […] In addition, secondary- and selectivity assays were performed using SSAO prepared from various tissues or purified rat recombinant SSAO. The enzyme activity was assayed with benzylamine as substrate by measuring either benzaldehyde production, using 14C-labeled substrate, or by utilizing the production of hydrogen peroxide in a horseradish peroxidase (HRP) coupled reaction. Briefly, test compounds were dissolved in dimethyl sulfoxide (DMSO) to a concentration of 10 mM. Dose-response measurements were assayed by either creating 1:10 serial dilutions in DMSO to produce a 7 point curve or by making 1:3 serial dilutions in DMSO to produce 11 point curves.
structure (smiles),measurement,value
"Cc1cc(N)ncc1-c1cc2ccncc2n1-c1ccc(Cl)cc1 [5-[1-(4-Chlorophenyl)-1H-pyrrolo[2,3-c]pyridin-2-yl]-4-methylpyridin-2-amine; bis(trifluoroacetic acid)]",IC50,in the range around 125 nM
